From the NIST ThermoML archive (doi:10.1016/j.jct.2016.07.009) come the findings set out here.

± gives the expanded uncertainty stated by the source.

The conditions of data set [1]: Crystal; DTA.
The nature of data set [2]: Molar enthalpy of transition or fusion. Conditions: Crystal; DSC.

For `Nc1ccc([N+](=O)[O-])cc1[N+](=O)[O-]` [2,4-dinitroaniline], the Normal melting temperature in data set [1] is 178.1 ± 1.1 °C. Besides, the “Molar enthalpy of transition or fusion” value in data set [2] is 5.93 ± 0.227 kcal/mol.
